Bridge positions count the residues as written; N and C are the ends. Square brackets hold non-standard residues; d marks the D form. Peptide text beside a SMILES is read from it.
Experiments:
[1] = system: H1N1 A1/Malaysia/302/1954; conditions: A1/Malaysia/302/1954, 48 h, 500 μM
H3N8 A/Miami/2/63 = conditions: A/Miami/2/63, 48 h, 500 μM
H3N2 A/HK/8/1968 = conditions: A/HK/8/1968, 48 h, 500 μM
H1N1 A/PR/8/1934 = conditions: A/PR/8/1934, 48 h, 1 μM

Row | SMILES | % Inhibition (H1N1 A/PR/8/1934) [%] | other results
1 | C[C@H](O)[C@H]1NC(=O)[C@H](N)CSSC[C@H](C(=O)O)NC(=O)[C@@H](CC(N)=O)NC(=O)[C@@H](CS)NC(=O)[C@@H](Cc2ccccc2)NC(=O)[C@@H](CCCNC(=N)N)NC(=O)[C@@H](CO)NC(=O)[C@@H](CCCCN)NC1=O [PSP 2, H-ctksrfcnc-OH] (H-[dC][dT][dK][dS][dR][dF][dC][dN][dC]-OH; disulfide 1-9) | – | % inhibition H1N1 [1]: 67.6%; % inhibition H3N8 (H3N8 A/Miami/2/63): 65%; % inhibition H3N2 (H3N2 A/HK/8/1968): 18.5%
2 | CC[C@@H](C)[C@H]1NC(=O)[C@@H](Cc2ccccc2)NC(=O)[C@@H]([C@H](C)O)NC(=O)[C@@H](Cc2ccccc2)NC(=O)[C@@H](Cc2c[nH]c3ccccc23)NC(=O)[C@@H](Cc2c[nH]c3ccccc23)NC(=O)[C@H](NC(=O)[C@H](CCCCN)NC(=O)[C@H](CCCCN)NC(=O)[C@H](CCCNC(=N)N)NC(=O)[C@@H](N)CCCNC(=N)N)CSSC[C@H](C(=O)O)NC(=O)[C@@H](Cc2ccccc2)NC1=O [PSP VI A5, H-RRKKcwwftfifc-OH] (H-RRKK[dC][dW][dW][dF][dT][dF][dI][dF][dC]-OH; disulfide 5-13) | 60 | –
3 | CC[C@@H](C)[C@H]1NC(=O)[C@@H](Cc2ccccc2)NC(=O)[C@@H]([C@H](C)O)NC(=O)[C@@H](Cc2ccccc2)NC(=O)[C@@H](Cc2c[nH]c3ccccc23)NC(=O)[C@@H](Cc2c[nH]c3ccccc23)NC(=O)[C@H](NC(=O)[C@H](CCCCN)NC(=O)[C@H](CCCCN)NC(=O)[C@H](CCCNC(=N)N)NC(=O)[C@@H](N)CCCNC(=N)N)CSSC[C@H](C(=O)O)NC(=O)CNC1=O [PSP VI A6, H RRKKcwwftfiGc-OH] (H-RRKK[dC][dW][dW][dF][dT][dF][dI]G[dC]-OH; disulfide 5-13) | 69 | –
4 | CC[C@@H](C)[C@H]1NC(=O)[C@@H](Cc2ccccc2)NC(=O)[C@@H]([C@H](C)O)NC(=O)[C@@H](Cc2ccccc2)NC(=O)[C@@H](Cc2c[nH]c3ccccc23)NC(=O)[C@@H](Cc2c[nH]c3ccccc23)NC(=O)[C@H](NC(=O)[C@H](CCCCN)NC(=O)[C@H](CCCCN)NC(=O)[C@H](CCCNC(=N)N)NC(=O)[C@@H](N)CCCNC(=N)N)CSSC[C@H](C(=O)O)NC(=O)[C@@H](Cc2c[nH]cn2)NC1=O [PSP VI A7, H-RRKKcwwftfihc-OH] (H-RRKK[dC][dW][dW][dF][dT][dF][dI][dH][dC]-OH; disulfide 5-13) | 38.5 | –
5 | CC[C@@H](C)[C@H]1NC(=O)[C@@H](Cc2ccccc2)NC(=O)[C@@H]([C@H](C)O)NC(=O)[C@@H](Cc2ccccc2)NC(=O)[C@@H](Cc2c[nH]c3ccccc23)NC(=O)[C@@H](Cc2c[nH]c3ccccc23)NC(=O)[C@H](NC(=O)[C@H](CCCCN)NC(=O)[C@H](CCCCN)NC(=O)[C@H](CCCNC(=N)N)NC(=O)[C@@H](N)CCCNC(=N)N)CSSC[C@H](C(=O)O)NC(=O)[C@@H]([C@H](C)CC)NC1=O [PSP VI A8, H-RRKKcwwftfiic-OH] (H-RRKK[dC][dW][dW][dF][dT][dF][dI][dI][dC]-OH; disulfide 5-13) | 49 | –
6 | CC[C@@H](C)[C@H]1NC(=O)[C@@H](Cc2ccccc2)NC(=O)[C@@H]([C@H](C)O)NC(=O)[C@@H](Cc2ccccc2)NC(=O)[C@@H](Cc2c[nH]c3ccccc23)NC(=O)[C@@H](Cc2c[nH]c3ccccc23)NC(=O)[C@H](NC(=O)[C@H](CCCCN)NC(=O)[C@H](CCCCN)NC(=O)[C@H](CCCNC(=N)N)NC(=O)[C@@H](N)CCCNC(=N)N)CSSC[C@H](C(=O)O)NC(=O)[C@@H](CCCCN)NC1=O [PSP VI A9, H-RRKKcwwftfikc-OH] (H-RRKK[dC][dW][dW][dF][dT][dF][dI][dK][dC]-OH; disulfide 5-13) | 11 | –
7 | CC[C@@H](C)[C@H]1NC(=O)[C@@H](Cc2ccccc2)NC(=O)[C@@H]([C@H](C)O)NC(=O)[C@@H](Cc2ccccc2)NC(=O)[C@@H](Cc2c[nH]c3ccccc23)NC(=O)[C@@H](Cc2c[nH]c3ccccc23)NC(=O)[C@H](NC(=O)[C@H](CCCCN)NC(=O)[C@H](CCCCN)NC(=O)[C@H](CCCNC(=N)N)NC(=O)[C@@H](N)CCCNC(=N)N)CSSC[C@H](C(=O)O)NC(=O)[C@@H](CC(C)C)NC1=O [PSP VI A10, H-RRKKcwwftfilc-OH] (H-RRKK[dC][dW][dW][dF][dT][dF][dI][dL][dC]-OH; disulfide 5-13) | 48 | –
8 | CC[C@@H](C)[C@H]1NC(=O)[C@@H](Cc2ccccc2)NC(=O)[C@@H]([C@H](C)O)NC(=O)[C@@H](Cc2ccccc2)NC(=O)[C@@H](Cc2c[nH]c3ccccc23)NC(=O)[C@@H](Cc2c[nH]c3ccccc23)NC(=O)[C@H](NC(=O)[C@H](CCCCN)NC(=O)[C@H](CCCCN)NC(=O)[C@H](CCCNC(=N)N)NC(=O)[C@@H](N)CCCNC(=N)N)CSSC[C@H](C(=O)O)NC(=O)[C@@H](CCSC)NC1=O [PSP VI A11, H-RRKKcwwftfimc-OH] (H-RRKK[dC][dW][dW][dF][dT][dF][dI][dM][dC]-OH; disulfide 5-13) | 79 | –
9 | CC[C@@H](C)[C@H]1NC(=O)[C@@H](Cc2ccccc2)NC(=O)[C@@H]([C@H](C)O)NC(=O)[C@@H](Cc2ccccc2)NC(=O)[C@@H](Cc2c[nH]c3ccccc23)NC(=O)[C@@H](Cc2c[nH]c3ccccc23)NC(=O)[C@H](NC(=O)[C@H](CCCCN)NC(=O)[C@H](CCCCN)NC(=O)[C@H](CCCNC(=N)N)NC(=O)[C@@H](N)CCCNC(=N)N)CSSC[C@H](C(=O)O)NC(=O)[C@H]2CCCN2C1=O [PSP VI A13, H-RRKKcwwftfipc-OH] (H-RRKK[dC][dW][dW][dF][dT][dF][dI][dP][dC]-OH; disulfide 5-13) | 42 | –
10 | CC[C@@H](C)[C@H]1NC(=O)[C@@H](Cc2ccccc2)NC(=O)[C@@H]([C@H](C)O)NC(=O)[C@@H](Cc2ccccc2)NC(=O)[C@@H](Cc2c[nH]c3ccccc23)NC(=O)[C@@H](Cc2c[nH]c3ccccc23)NC(=O)[C@H](NC(=O)[C@H](CCCCN)NC(=O)[C@H](CCCCN)NC(=O)[C@H](CCCNC(=N)N)NC(=O)[C@@H](N)CCCNC(=N)N)CSSC[C@H](C(=O)O)NC(=O)[C@@H](CCC(N)=O)NC1=O [PSP VI A14, H-RRKKcwwftfiqc-OH] (H-RRKK[dC][dW][dW][dF][dT][dF][dI][dQ][dC]-OH; disulfide 5-13) | 85 | –
11 | CC[C@@H](C)[C@H]1NC(=O)[C@@H](Cc2ccccc2)NC(=O)[C@@H]([C@H](C)O)NC(=O)[C@@H](Cc2ccccc2)NC(=O)[C@@H](Cc2c[nH]c3ccccc23)NC(=O)[C@@H](Cc2c[nH]c3ccccc23)NC(=O)[C@H](NC(=O)[C@H](CCCCN)NC(=O)[C@H](CCCCN)NC(=O)[C@H](CCCNC(=N)N)NC(=O)[C@@H](N)CCCNC(=N)N)CSSC[C@H](C(=O)O)NC(=O)[C@@H](CCCNC(=N)N)NC1=O [PSP VI A15, H-RRKKcwwftfirc-OH] (H-RRKK[dC][dW][dW][dF][dT][dF][dI][dR][dC]-OH; disulfide 5-13) | 92 | –
12 | CC[C@@H](C)[C@H]1NC(=O)[C@@H](Cc2ccccc2)NC(=O)[C@@H]([C@H](C)O)NC(=O)[C@@H](Cc2ccccc2)NC(=O)[C@@H](Cc2c[nH]c3ccccc23)NC(=O)[C@@H](Cc2c[nH]c3ccccc23)NC(=O)[C@H](NC(=O)[C@H](CCCCN)NC(=O)[C@H](CCCCN)NC(=O)[C@H](CCCNC(=N)N)NC(=O)[C@@H](N)CCCNC(=N)N)CSSC[C@H](C(=O)O)NC(=O)[C@@H](CO)NC1=O [PSP VI A16, H-RRKKcwwftfisc-OH] (H-RRKK[dC][dW][dW][dF][dT][dF][dI][dS][dC]-OH; disulfide 5-13) | 74 | –
13 | CC[C@@H](C)[C@H]1NC(=O)[C@@H](Cc2ccccc2)NC(=O)[C@@H]([C@H](C)O)NC(=O)[C@@H](Cc2ccccc2)NC(=O)[C@@H](Cc2c[nH]c3ccccc23)NC(=O)[C@@H](Cc2c[nH]c3ccccc23)NC(=O)[C@H](NC(=O)[C@H](CCCCN)NC(=O)[C@H](CCCCN)NC(=O)[C@H](CCCNC(=N)N)NC(=O)[C@@H](N)CCCNC(=N)N)CSSC[C@H](C(=O)O)NC(=O)[C@@H]([C@H](C)O)NC1=O [PSP VI A17, H-RRKKcwwftfitc-OH] (H-RRKK[dC][dW][dW][dF][dT][dF][dI][dT][dC]-OH; disulfide 5-13) | 27 | –
14 | CC[C@@H](C)[C@H]1NC(=O)[C@@H](Cc2ccccc2)NC(=O)[C@@H]([C@H](C)O)NC(=O)[C@@H](Cc2ccccc2)NC(=O)[C@@H](Cc2c[nH]c3ccccc23)NC(=O)[C@@H](Cc2c[nH]c3ccccc23)NC(=O)[C@H](NC(=O)[C@H](CCCCN)NC(=O)[C@H](CCCCN)NC(=O)[C@H](CCCNC(=N)N)NC(=O)[C@@H](N)CCCNC(=N)N)CSSC[C@H](C(=O)O)NC(=O)[C@@H](C(C)C)NC1=O [PSP VI A18, H-RRKKcwwftfivc-OH] (H-RRKK[dC][dW][dW][dF][dT][dF][dI][dV][dC]-OH; disulfide 5-13) | 53 | –
15 | CC[C@@H](C)[C@H]1NC(=O)[C@@H](Cc2ccccc2)NC(=O)[C@@H]([C@H](C)O)NC(=O)[C@@H](Cc2ccccc2)NC(=O)[C@@H](Cc2c[nH]c3ccccc23)NC(=O)[C@@H](Cc2c[nH]c3ccccc23)NC(=O)[C@H](NC(=O)[C@H](CCCCN)NC(=O)[C@H](CCCCN)NC(=O)[C@H](CCCNC(=N)N)NC(=O)[C@@H](N)CCCNC(=N)N)CSSC[C@H](C(=O)O)NC(=O)[C@@H](Cc2c[nH]c3ccccc23)NC1=O [PSP VI A19, H-RRKKcwwftfiwc-OH] (H-RRKK[dC][dW][dW][dF][dT][dF][dI][dW][dC]-OH; disulfide 5-13) | 78 | –
16 | CC[C@@H](C)[C@H]1NC(=O)[C@@H](Cc2ccccc2)NC(=O)[C@@H]([C@H](C)O)NC(=O)[C@@H](Cc2ccccc2)NC(=O)[C@@H](Cc2c[nH]c3ccccc23)NC(=O)[C@@H](Cc2c[nH]c3ccccc23)NC(=O)[C@H](NC(=O)[C@H](CCCCN)NC(=O)[C@H](CCCCN)NC(=O)[C@H](CCCNC(=N)N)NC(=O)[C@@H](N)CCCNC(=N)N)CSSC[C@H](C(=O)O)NC(=O)[C@@H](Cc2ccc(O)cc2)NC1=O [PSP VI A20, H-RRKKcwwftfiyc-OH] (H-RRKK[dC][dW][dW][dF][dT][dF][dI][dY][dC]-OH; disulfide 5-13) | 53 | –

From patent US10538554B2, “Peptides and uses therefor as antiviral agents” (priority 2015, dated 2020)
